Measurements: patent publication US5594001A, “Polycyclic systems, and derivatives thereof, as neurotransmitter release enhancers useful in the treatment of cognitive disorders” (The DuPont Merck Pharmaceutical Company, priority 1994, dated 1997)

Legend:
[1] = system: stimulus-induced acetylcholine release, slices from the parietal cortex; experiment: Neurotransmitter (ACh) release assay, rat cortex slices, K+ stimulated; type: cell-based, rat (male Wistar); conditions: for EC50: Table III
Description: The neurotransmitter release activities of the compounds of this invention were determined using standard biochemical assay procedures for example, the neurotransmitter release assay as described below.
Neurotransmitter release assay.
The neurotransmitter (Ach) release activities of the compounds of this invention were determined by the assay as described by Nickolson, et al., Drug Development Research, (1990) 19: 285-300, a modification of the procedure described by Mulder, et al., Brain Res., (1974) 70: 372.
Male Wistar rats (Charies River) weighing 175-200 grams were used. Rats were decapitated and brains were dissected immediately. Slices (0.3 mm thick) from the parietal cortex were prepared (approximately 100 mg wet weight) and were incubated in 10 ml KrebsRinger medium (KR) containing NaCl (116 mM), KCl (3 mM), CaCl2 (1.3 mM), MgCl2 (1.2 mM), KH2 PO4 (1.2 mM), Na2 SO4 (1.2 mM), NaHCO3 (25.0 mM), and glucose (11.0 mM), to which was added 10 uCi ^3 H-choline (specific activity approximately 35 Ci/mM; NEN) and […] unlabeled choline to give a final concentration of one micromole. The brain preparations were incubated for 30 min. at 37° C. under a steady flow of 95% O2 /5% CO2. Under these conditions, part of the radioactive choline taken up by the preparation was converted into radioactive acetylcholine (ACh) by the cholinergic nerve endings stored in synaptic vesicles, and released upon depolarization by high potassium ion (K+) containing media.
After labelling of the ACh stores, the slices were washed three times with non-radioactive KR medium and transferred to a superfusion apparatus to measure the drug effects on ACh release. The superfusion apparatus consisted of 10 thermostated glass columns of 5 mm diameter that were provided with GF/F glass fiber filters to support the slices (approximately 10 mg tissue/column). Superfusion was carried out in KR-medium (0.3 ml/min.) containing […] hemicholine-3 (HC-3). The HC-3 prevents the reuptake of choline formed during the superfusion from phospholipids and released ACh, which would be converted into unlabeled ACh and released in preference to the preformed labeled ACh. The medium was delivered by a 25-channel peristaltic pump (Ismatec by Brinkman) and warmed to 37° C. in a thermostated stainless steel coil before entering the superfusion column. Each column was provided with a 4-way slider valve (Beckmann instruments) which allowed rapid change of low to high K+/KR-medium, and with two 10-channel 3-way valves that were used to change from drug-free to drug-containing low and high K+/KR-medium. After 15 min. of washout of non-specifically bound radioactivity, collection of 4 min. fractions was initiated. After three 4 min. collections, the original medium was changed to a KR-medium in which the KCl concentration had been increased to 25 mM (high K+ medium) (S1). Depolarization-induced stimulation of release by high K+/KR-medium lasted for 4 min. Drug free low and high K+/KR-media were then substituted by drug- and vehicle-containing low- and high-K+/KR-medium, and superfusion was continued for three 4 min. collections with low K+/KR-medium, one 4 min. collection with high K+/KR-medium (s2), and two 4 min. collections with low K+/KR-medium.
Drug was added to the media by 100-fold dilutions of appropriate concentrations of the drug (in 0.9% saline) with either low- or high-K+/KR-medium. For comparative purposes, linopirdine was also run.
All superfusion fractions were collected in liquid scintillation counting vials. After superfusion, the slices were removed from the superfusion columns and extracted with 1.0 ml of 0.1N HCl. Liquiscint (NEN) counting fluid (12 ml) was added to superfusion fractions and extracts, and the samples were counted in a Packard Tricarb Liquid Scintillation Counter. No corrections were made for quenching. […]

[2] = system: memory disruption induced by hypoxia, male CD rats; experiment: Rat Passive Avoidance (PA) Hypoxia Induced Amnesia; type: in vivo, rat (male CD); conditions: Table II; SC; median retention latency vs vehicle
Description: Rat Passive Avoidance (PA) Hypoxia Induced Amnesia:
Unfasted male CD rats, weighing between 165-210 grams, were trained in a PA apparatus using the following procedure: rats were placed in the clear side of the two compartment chamber and allowed 90 seconds to enter the dark compartment. Ten seconds after entering the dark chamber, a 3 second footshock (1.0 mA) was applied to the grid floor followed by an additional 10 second delay, and another 3 second footshock was applied. Retentions were tested 4 hours later. The rats were allowed 300 seconds to enter the dark compartment; time was taken. Memory disruption was induced by exposing the rats to a gas mixture containing 6.5% oxygen supplemented with nitrogen for 30 minutes before passive avoidance training. Doses of the test compound were administered (0.1 ml/100 g, SC.) relative to time of PA training.

[3] = system: ACh level in the rat hippocampus; experiment: Microdialysis, ACh levels in the rat hippocampus in vivo; set-up: species or system rat (male Wistar); conditions: Table IV
Description: Male Wistar Rats are anaesthetized and guide cannulas stereotaxically implanted into the brain at the level of the dorsal hippocampus. Following a minimum recovery period of 72 h, dialysis probes (0.5 mm diameter, 4.0 mm long, from BAS) are inserted into the hippocampus through the guide cannulas. The probes are perfused at a rate of 2 μl/min with artificial cerebrospinal fluid containing 100 μM physostigmine sulfate (a cholinesterase inhibitor). Rats are allowed to acclimate for 2 hours prior to sample collection. Dialysate samples are collected every 20 min (40 μl) and immediately injected onto a high performance liquid chromatograph equipped for electrochemical detection (HPLC-EC) of acetylcholine (ACh). Following collection of 3 baseline samples, drugs or vehicle control are administered in 0.01 ml/g body weight and dialysate samples are collected for an additional 3 h. The ACh peak heights of the 3 samples prior to drug administration are averaged together to determine baseline ACh levels. ACh peak heights post drug administration are measured and used to determine percent change over baseline ACh levels. At the end of experiments, probe placement is verified histologically.
ACh is separated by reverse phase chromatography (Hamilton PRP-1 column 150×4.5 mm) and converted to acetate, betaine and hydrogen peroxide on an immobilized enzyme reactor column (BAS). Hydrogen peroxide is then detected electrochemically. Mobile phase for the chromatography consists of 0.2M Na2 HPO4, 0.1 mM EDTA, 0.5 mM SOS, 0.9 mM TMA.Cl, with pH adjusted to 8.0 with phosphoric acid and […] Kathon CG (ESA) added to each liter of mobile phase to retard bacterial growth.
FIGS. 1 and 2 show the effects of fluorine substitution to the pendant groups of the anthrone and azafluorene core series on the ability of compounds to increase the level of ACh in the rat hippocampus in vivo. All compounds were tested at 5 mg/kg except Ex. No 64 which was administered at 1 mg/kg. […] This was observed even though the compound was administered by a route (i.p.) which should lead to greater bioavailability than the oral route. Example 68 of the present invention, the bis-fluorinated analog of Example 611 or U.S. Pat. No. 5,173,489, on the other hand, led to a 2-fold increase in ACh levels which was maintained for over 1 hour (FIG. 1). The anthrone compound Ex. No. 440 of U.S. Pat. No. 5,173,489, at 5 mg/kg, led to a peak ACh level of 72% over baseline (FIG. 2). Ex. No. 64 of the present invention, which is the bis-fluoro analog of Ex. No. 440 of U.S. Pat. No. 5,173,489, at 1 mg/kg, led to a delayed increase in ACh levels reaching a peak of over 100% above baseline (FIG. 2). In contrast to the observed effects of Example 440 of U.S. Pat. No. 5,173,489, the increase in ACh level after administration of Example 64 of the present invention was maintained for the entire duration of testing (3 hours).

[4] = 5 mg/kg, vehicle methocel, NSP = no significant points

c1ccc(Cn2ncc3c2-c2ccccc2C3(Cc2ccncc2)Cc2ccncc2)cc1 [Example 14, 1,4-Dihydro-1-(phenylmethyl)-4,4-bis(4-pyridinylmethyl)indeno[1,2-C]pyrazol]
activation at 10 µM ([1]; Table II, 10 μM, % increase of drug-induced ACh release): 533% | PA Hypoxia [2]: Active

Fc1cc(CC2(Cc3ccnc(F)c3)c3cccnc3-c3sccc32)ccn1 [Example 69, 4,4-Bis((2-fluoro-4-pyridinyl)methyl)-4H-thieno[3',2':4,5]cyclopenta[1,2-b]pyridine]
EC50 [1]: 0.65 µM | AUC, Area % under the curve ([3]; 5 mg/kg, vehicle water): 285 ± 40% | Peak, maximal % increase of ACh release over baseline ([3]; 5 mg/kg, vehicle water): 44 ± 14% | time of Peak after administration ([3]; 5 mg/kg, vehicle water): 20 min | Duration, minutes of release above statistical significance ([3]; 5 mg/kg, vehicle water, NSP = no significant points): 40 min

COc1ccc2c(c1)C(Cc1ccnc(F)c1)(Cc1ccnc(F)c1)c1ccccc1-2 [Example 71, 9,9-Bis((2-fluoro-4-pyridinyl)methyl)-2-methoxyfluorene]
EC50 [1]: 1.24 µM | AUC, Area % under the curve ([3]; 5 mg/kg, vehicle methocel): 126 ± 74% | Peak, maximal % increase of ACh release over baseline ([3]; 5 mg/kg, vehicle methocel): 34 ± 16% | time of Peak after administration ([3]; 5 mg/kg, vehicle methocel): 60 min | Duration, minutes of release above statistical significance [3, 4]: NSP

COc1ccc2c(c1)C(Cc1ccnc(F)c1)(Cc1ccnc(F)c1)c1cccnc1O2 [Example 72, 9,9-Bis((2-fluoro-4-pyridinyl)methyl)-7-methoxy-4-azaxanthene]
EC50 [1]: 0.85 µM | AUC, Area % under the curve ([3]; 5 mg/kg, vehicle methocel): 138 ± 109% | Peak, maximal % increase of ACh release over baseline ([3]; 5 mg/kg, vehicle methocel): 34 ± 22% | time of Peak after administration ([3]; 5 mg/kg, vehicle methocel): 60 min | Duration, minutes of release above statistical significance [3, 4]: NSP

Fc1cc(CC2(Cc3ccnc(F)c3)c3cccnc3-c3cccnc32)ccn1 [Example 75, 9,9-Bis((2-fluoro-4-pyridinyl)methyl)-cyclopenta[1,2-b:3,4-b']dipyridine]
EC50 [1]: 1.21 µM | AUC, Area % under the curve ([3]; 5 mg/kg, vehicle methocel): 302 ± 35% | Peak, maximal % increase of ACh release over baseline ([3]; 5 mg/kg, vehicle methocel): 67 ± 12% | time of Peak after administration ([3]; 5 mg/kg, vehicle methocel): 20 min | Duration, minutes of release above statistical significance [3, 4]: 60 min

Fc1cc(CC2(Cc3ccnc(F)c3)c3ccccc3-c3nc(-c4ccccc4)ncc32)ccn1 [Example 76, 5,5-Bis((2-fluoro-4-pyridinyl)methyl)-2-phenyl-5H-indeno[1,2-d]pyrimidine]
EC50 [1]: 0.66 µM | AUC, Area % under the curve ([3]; 5 mg/kg, vehicle methocel): 96 ± 67% | Peak, maximal % increase of ACh release over baseline ([3]; 5 mg/kg, vehicle methocel): 39 ± 25% | time of Peak after administration ([3]; 5 mg/kg, vehicle methocel): 20 min | Duration, minutes of release above statistical significance [3, 4]: NSP

Fc1cc(CC2(Cc3ccnc(F)c3)c3ccccc3-c3ncncc32)ccn1 [Example 81, 5,5-Bis((2-fluoro-4-pyridinyl)methyl)-5H-indeno-[1,2-d]pyrimidine]
EC50 [1]: 0.64 µM | AUC, Area % under the curve ([3]; 5 mg/kg, vehicle methocel): 250 ± 68% | Peak, maximal % increase of ACh release over baseline ([3]; 5 mg/kg, vehicle methocel): 53 ± 17% | time of Peak after administration ([3]; 5 mg/kg, vehicle methocel): 60 min | Duration, minutes of release above statistical significance [3, 4]: 100 min

Fc1cc(CC2(Cc3ccnc(F)c3)c3cccnc3-c3ncccc32)ccn1 [Example 97, 5,5-Bis((2-fluoro-4-pyridinyl)methyl)-5H-cyclopenta[2,1-b:3,4-b']dipyridine]
EC50 [1]: 2.62 µM | AUC, Area % under the curve ([3]; 10 mg/kg, vehicle methocel): 649 ± 188% | Duration, minutes of release above statistical significance ([3]; 10 mg/kg, vehicle methocel): 120 min | Peak, maximal % increase of ACh release over baseline ([3]; 10 mg/kg, vehicle methocel): 102 ± 29% | time of Peak after administration ([3]; 10 mg/kg, vehicle methocel): 100 min
